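Results reflect a 48-hour exposure of cells in 96-well plates to compound at five concentrations. GI50 is the concentration that inhibits growth by half.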 Active and inactive are the calls of the source. Rule as the data show it: active = GI50 up to about 1.1 µM and inactive = higher.
Experiments:
Test in all cases: NCI anticancer screen, dose series, 48 h
[1] = tested on: PC-3
[2] = tested on: SR
[3] = tested on: OVCAR-3
[4] = tested on: MDA-MB-231
[5] = tested on: UACC-257
[6] = tested on: LOX IMVI
[7] = tested on: IGROV-1
[8] = tested on: ACHN
[9] = tested on: CAKI-1
[10] = tested on: SNB-19
[11] = tested on: OVCAR-5
[12] = tested on: MCF7
[13] = tested on: DU-145
[14] = tested on: RPMI-8226
[15] = tested on: SW-620
[16] = tested on: RXF 393
[17] = tested on: NCI-H460
[18] = tested on: KM12
[19] = tested on: OVCAR-8
[20] = tested on: SN12C
[21] = tested on: SF-539
[22] = tested on: SK-MEL-5
[23] = tested on: NCI/ADR-RES
[24] = tested on: U-251
[25] = tested on: CCRF-CEM
[26] = tested on: A498
[27] = tested on: 786-0
[28] = tested on: HOP-92
[29] = tested on: OVCAR-4
[30] = tested on: K562
[31] = tested on: SNB-75
[32] = tested on: MOLT-4
[33] = tested on: HCC 2998
[34] = tested on: NCI-H226
[35] = tested on: A549
[36] = tested on: SK-MEL-2
[37] = tested on: HCT-15
[38] = tested on: SF-295
[39] = tested on: Hs-578T
[40] = tested on: HCT-116
[41] = tested on: NCI-H522
[42] = tested on: UACC-62
[43] = tested on: HL-60
[44] = tested on: BT-549
[45] = tested on: SK-OV-3
[46] = tested on: UO-31
[47] = tested on: HOP-62
[48] = tested on: MDA-N
[49] = tested on: EKVX
[50] = tested on: TK-10
[51] = tested on: SK-MEL-28
[52] = tested on: MDA-MB-435
[53] = tested on: COLO 205
[54] = tested on: M14
[55] = tested on: HT-29
[56] = tested on: T47D
[57] = tested on: Malme-3M
[58] = tested on: NCI-H23
[59] = tested on: SF-268

Measured: GI50

CCOC(=O)c1c(C)nc2c3ccccc3c(C#N)c(C)n12
inactive: [1] > 100 µM | [2] 33.9 µM | [3] > 100 µM | [4] 14.3 µM | [5] > 100 µM | [6] > 100 µM | [7] 23 µM | [8] 57.5 µM | [9] 79.3 µM | [10] > 100 µM | [11] 88.7 µM | [12] > 100 µM | [13] 74.8 µM | [14] > 100 µM | [15] > 100 µM | [16] 33.4 µM | [17] 49.4 µM | [18] > 100 µM | [19] 49.1 µM | [20] > 100 µM | [21] > 100 µM | [22] 48.1 µM | [23] 80.4 µM | [24] 70.8 µM | [25] > 100 µM | [26] > 100 µM | [27] > 10 µM | [28] 58.7 µM | [29] 94 µM | [30] > 100 µM | [31] 20.6 µM | [32] > 100 µM | [33] > 100 µM | [34] > 100 µM | [35] 50.1 µM | [36] > 100 µM | [38] 34.9 µM | [39] 32.9 µM | [40] 37.2 µM | [41] 23 µM | [42] > 100 µM | [43] > 100 µM | [44] > 100 µM | [45] 21.2 µM | [46] 15.6 µM | [47] 26.2 µM | [48] > 10 µM | [49] 6.65 µM | [50] > 100 µM | [51] > 100 µM | [52] > 100 µM
> 100 µM: [37]

Cc1cc2c(cc1Cl)SSc1cc(Cl)c(C)cc1S(=O)(=O)Nc1nc(N)nn1C(O)n1nc(N)nc1NS2(=O)=O
inactive: [1] > 10 µM | [2] > 10 µM | [3] > 10 µM | [53] > 10 µM | [5] > 10 µM | [6] > 10 µM | [7] > 10 µM | [8] > 10 µM | [9] > 10 µM | [10] > 10 µM | [11] > 10 µM | [12] > 10 µM | [13] > 10 µM | [14] > 10 µM | [15] > 10 µM | [16] > 10 µM | [17] > 10 µM | [18] > 10 µM | [54] > 10 µM | [19] > 10 µM | [20] > 10 µM | [21] > 10 µM | [22] > 10 µM | [23] > 10 µM | [24] > 10 µM | [25] > 10 µM | [26] > 10 µM | [27] > 10 µM | [28] > 10 µM | [29] > 10 µM | [30] > 10 µM | [55] > 10 µM | [31] > 10 µM | [32] > 10 µM | [33] > 10 µM | [34] > 10 µM | [56] > 10 µM | [57] > 10 µM | [35] > 10 µM | [36] > 10 µM | [38] > 10 µM | [39] > 10 µM | [40] > 10 µM | [41] > 10 µM | [58] > 10 µM | [43] > 10 µM | [44] > 10 µM | [45] > 10 µM | [46] > 10 µM | [47] > 10 µM | [48] > 10 µM | [49] > 10 µM | [50] > 10 µM | [51] > 10 µM | [59] > 10 µM
> 10 µM: [37]

CN(C)CCn1nc(N)c2nc3cc(C(F)(F)F)ccc3nc21
67.3 µM: [37]
inactive: [1] > 100 µM | [2] > 100 µM | [4] > 100 µM | [53] 27.7 µM | [5] > 100 µM | [6] 54.8 µM | [7] 41.5 µM | [8] > 100 µM | [9] 90.2 µM | [10] > 100 µM | [11] > 100 µM | [12] > 100 µM | [13] 54.8 µM | [14] > 100 µM | [15] 81.1 µM | [16] 26.4 µM | [17] 51.4 µM | [18] > 100 µM | [54] > 100 µM | [19] 88.3 µM | [20] > 100 µM | [22] > 100 µM | [23] > 100 µM | [24] > 100 µM | [25] 79.3 µM | [26] > 100 µM | [27] > 100 µM | [28] 79.4 µM | [29] > 100 µM | [30] > 100 µM | [55] > 100 µM | [31] 15.5 µM | [32] 33.2 µM | [33] 75.9 µM | [34] 2.49 µM | [57] > 100 µM | [35] 58.2 µM | [36] > 100 µM | [38] > 100 µM | [39] 88.7 µM | [40] > 100 µM | [41] 42 µM | [42] > 100 µM | [58] > 100 µM | [43] 34.6 µM | [44] 99.8 µM | [45] > 100 µM | [46] 31.3 µM | [47] 57.4 µM | [48] > 100 µM | [49] > 100 µM | [50] > 100 µM | [51] > 100 µM | [52] > 100 µM | [59] 94.6 µM

O=C(Cc1ccccc1)NNc1nc(NNC(=O)c2ccncc2)nc(Nc2ccc(Cl)cc2)n1
> 10 µM: [37]
inactive: [2] > 10 µM | [4] > 10 µM | [53] > 10 µM | [5] > 10 µM | [6] > 10 µM | [7] > 10 µM | [9] > 10 µM | [12] > 10 µM | [13] > 10 µM | [14] > 10 µM | [15] > 10 µM | [18] > 10 µM | [54] > 10 µM | [19] > 10 µM | [20] > 10 µM | [21] > 10 µM | [22] > 10 µM | [23] 5.85 µM | [24] > 10 µM | [25] > 10 µM | [27] > 10 µM | [28] > 10 µM | [29] > 10 µM | [30] > 10 µM | [31] > 10 µM | [32] > 10 µM | [33] > 10 µM | [56] > 10 µM | [57] > 10 µM | [35] > 10 µM | [39] > 10 µM | [42] 9.68 µM | [58] > 10 µM | [43] > 10 µM | [44] > 10 µM | [45] > 10 µM | [46] > 10 µM | [47] > 10 µM | [48] > 10 µM | [49] > 10 µM | [50] > 10 µM | [51] > 10 µM | [59] > 10 µM
